{"source": "patent US6960571B2", "about": "“Methods and compositions for administration of iron for the treatment of restless leg syndrome” (Luitpold Pharmaceuticals, Inc., priority 2003, dated 2005)", "origin": "cited, not measured here", "note": "Read-outs that look alike come from different tables or passages of the source."}
{"molecule": "NCC1(CC(=O)O)CCCCC1", "note": "[Gabapentin]", "values": [{"measurement": "% affected by side effects", "setting": "Epilepsy patients, fatigue, dizziness, somnolence, ataxia", "result": "11-19%"}]}
{"molecule": "CCCN[C@H]1CCc2nc(N)sc2C1", "note": "[Pramipexole]", "values": [{"measurement": "% affected by side effects", "setting": "Parkinson patients, somnolence, insomnia, nausea, constipation, hallucinations", "result": "9-28%"}]}
{"molecule": "O=C1CN=C(c2ccccc2Cl)c2cc([N+](=O)[O-])ccc2N1", "note": "[Clonazepam]", "values": [{"measurement": "% affected by side effects", "setting": "Epilepsy patients, somnolence, depression, in-coordination", "result": "6-37%"}]}
{"molecule": "NC(=O)N1c2ccccc2C=Cc2ccccc21", "note": "[Carbamazepine]", "values": [{"measurement": "% affected by side effects", "setting": "Epilepsy patients, fetal malformation, rash, hyponatremia, hepatotoxicity, blood disorders, ataxia, gastro-intestinal problems, sexual dysfunction, toxicity", "result": "1-33%"}]}
{"molecule": "Clc1cccc(Cl)c1N=C1NCCN1", "note": "[Clonidine]", "values": [{"measurement": "% affected by side effects", "setting": "Hypertension patients, reduced blood pressure, dermatitis, systemic side effects (dry mouth, somnolence, dizziness, headache)", "result": "8-89%"}]}
{"molecule": "levodopa/carbidopa", "values": [{"measurement": "% affected by side effects", "setting": "Parkinson patients, dyskinesia, nausea, hallucinations", "result": "4-17%"}]}
{"molecule": "Pergolide w/ levodopa/carbidopa", "values": [{"measurement": "% affected by side effects", "setting": "Parkinson patients, dyskinesia, nausea, hallucinations, rhinitis, constipation, pain", "result": "7-62%"}]}
{"molecule": "Cc1nnc2n1-c1ccc(Cl)cc1C(c1ccccc1Cl)=NC2", "note": "[Triazolam]", "values": [{"measurement": "% affected by side effects", "setting": "Insomnia patients, drowsiness, dizziness, memory impairment", "result": "1-14%"}]}
